Reference: ChEMBL document CHEMBL3232863, “Small molecule disruptors of the glucokinase-glucokinase regulatory protein interaction: 3. Structure-activity relationships within the aryl carbinol region of the N-arylsulfonamido-N'-arylpiperazine series” (J Med Chem, 2014)

Legend:
[1] = (§1) AUC in Sprague-Dawley rat at 10 mg/kg, po; type: ADME, organism-based, Plasma; parameters: dose 10 mg/kg, route oral; settings: Sprague-Dawley, plasma
[2] = Cmax in C57BL/6 mouse at 10 mg/kg, po; type: ADME, organism-based; parameters: dose 10 mg/kg, route oral; settings: in vivo
[3] = Tmax in C57BL/6 mouse at 10 mg/kg, po; type: ADME, organism-based; parameters: dose 10 mg/kg, route oral; settings: in vivo
[4] = AUC in C57BL/6 mouse at 10 mg/kg, po; type: ADME, organism-based; parameters: dose 10 mg/kg, route oral; settings: plasma
[5] = (§2) Oral bioavailability in Sprague-Dawley rat at 10 mg/kg; type: ADME, organism-based; settings: Sprague-Dawley, in vivo
Rattus norvegicus [6] = assay: as §1; type: ADME, organism-based, Plasma; parameters: dose 10 mg/kg, route oral; settings: in vivo
Rattus norvegicus [7] = assay: as §2; type: ADME, organism-based; settings: in vivo
[8] = Oral bioavailability in C57BL/6 mouse at 10 mg/kg; type: ADME, organism-based; settings: in vivo

Row | AUC [1] | Cmax [2] | Tmax [3] | AUC [4] | bioavailability [5] | AUC (Rattus norvegicus [6]) | F (Rattus norvegicus [7]) | bioavailability [8] | Structure (SMILES)
1 | 20 µM·h | 5.82 µM | 5 h | 64.8 µM·h |  |  |  |  | CC#C[C@H]1CN(S(=O)(=O)c2ccc(N)nc2)CCN1c1ccc(C(O)(C(F)(F)F)C(F)(F)F)cc1
2 | 7.1 µM·h |  |  |  | 48% |  |  |  | CC#C[C@H]1CN(S(=O)(=O)c2ccc(N)nc2)CCN1c1ccc([C@](O)(CO)C(F)(F)F)cc1
3 | 0.26 µM·h |  |  |  | 5% |  |  |  | CC#C[C@H]1CN(S(=O)(=O)c2ccc(N)nc2)CCN1c1ccc(S(N)(=O)=O)cc1
4 |  |  |  |  |  | 0.03 µM·h | 1.5% |  | CC#C[C@H]1CN(S(=O)(=O)c2ccc(N)nc2)CCN1c1ccc(S(=O)(=O)NC)cc1
5 | 25.3 µM·h | 46.6 µM | 1 h | 362 µM·h | 51% |  |  | 53% | CC#C[C@H]1CN(S(=O)(=O)c2ccc(N)nc2)CCN1c1ccc([S@](=N)(=O)C(F)(F)F)cc1
6 | 28.4 µM·h | 9.71 µM | 0.25 h | 37 µM·h | 47% |  |  | 47% | CC#C[C@H]1CN(S(=O)(=O)c2ccc(N)nc2)CCN1c1ccc([C@@](C)(O)C(F)(F)F)cn1
